Structures can show the parent of a compound that is named as a salt. Where two headings read alike, the source gives them in different places.
Assays:
[1] = test system: melanoma cell lines (A375, WM-164, B16-F1) and prostate cancer cell lines (LNCaP, DU 145, PC-3, PPC-1); assay: SRB cytotoxicity, melanoma and prostate cell panel (averages); assay type: cell-based; conditions: for antiproliferative activity: summary of Table 3
Source text: (§1) The only compounds which belong to the invention are the ones falling under the scope of formula (XI).

B16-F1 = assay: SRB cell growth inhibition (cytotoxicity) assay; assay type: cell-based, mouse
Source text: as §1

A375 = assay: SRB cell growth inhibition (cytotoxicity) assay; assay type: cell-based, human
PC-3 = assay: cells; conditions: Homo sapiens, PC-3, 96 h
Source text: as §1
Cells were stained with SRB solution.
Cells. […] Cells between the third and fifth passages were used for experiments.
Cell growth inhibition studies. […] Cells were stained with sulphorhodamine B (SRB) solution.

DU 145 = assay: cells; conditions: Homo sapiens, DU-145, 96 h
LNCaP = assay: cells; conditions: Homo sapiens, 96 h
PPC-1 = assay: cells; conditions: Homo sapiens, PPC-1, 96 h
[2] = rat
WM-164 = assay: SRB cell growth inhibition (cytotoxicity) assay; assay type: cell-based, human; conditions: Homo sapiens
[3] = Mus musculus, B16-F1; read-out: IC50 ± SEM (nM), B16-F1
[4] = Homo sapiens, A-375, 96 h; read-out: IC50 ± SEM (nM), A375
[5] = read-out: IC50 ± SEM (nM), PC-3
[6] = Prostate cell, Table 2, read-out: IC50 range over tested melanoma and prostate cell lines
[7] = read-out: IC50 ± SEM (nM), DU 145
[8] = read-out: IC50 ± SEM (nM), LNCaP
[9] = read-out: IC50 ± SEM (nM), PPC-1
[10] = IV, […] (1h, 2r), 5 mg/kg (5Ha, 5Hc)

Row | SMILES | IC50 (B16-F1; [3]) [nM] | IC50 (A375; [4]) [nM] | IC50 (PC-3; [5]) [nM] | IC50 (DU 145; [7]) [nM] | IC50 (LNCaP; [8]) [nM] | IC50 (PPC-1; [9]) [nM] | further results
1 | COc1cc(C(=NN)c2csc(-c3ccccc3)n2)cc(OC)c1OC (mixture of isomers) [2d] |  |  |  |  |  |  | IC50 ([1]; Table 2, read-out: IC50 range over tested melanoma and prostate cell lines): ~1000 nM
2 | COc1cc(/C(=N/O)c2csc(-c3ccccc3)n2)cc(OC)c1OC [2e-cis, (Z)-(2-Phenylthiazol-4-yl)(3,4,5-trimethoxyphenyl)methanone oxime] | 300 ± 100 | 200 ± 100 | 120 | 102 | 189 | 160 | IC50 [1, 6]: 100 to 300 nM
3 | COc1cc(/C(=N\O)c2csc(-c3ccccc3)n2)cc(OC)c1OC [2e-trans, (E)-(2-Phenylthiazol-4-yl)(3,4,5-trimethoxyphenyl)methanone oxime] | 11400 ± 2100 | 7800 ± 1200 | > 10000 | > 10000 | > 10000 | > 10000 | IC50 [1, 6]: > 10000 nM
4 | CNCc1ccc(-c2nc(C(=O)c3cc(OC)c(OC)c(OC)c3)cs2)cc1.Cl [2s, (2-(4-((Methylamino)methyl)phenyl)thiazol-4-yl)(3,4,5-trimethoxyphenyl)methanone hydrochloride] |  |  | > 10000 | ~10000 | 114 ± 80 | ~1000 | IC50 (B16-F1; Mus musculus, B16-F1, read-out: IC50 ± SEM (nM), B16-F1): > 10000 nM; IC50 (A375; Homo sapiens, A-375, 96 h, read-out: IC50 ± SEM (nM), A375): > 10000 nM; antiproliferative activity [1]: abrogated activity
5 | COc1cc(C(=O)c2csc(-c3ccc(CN(C)C)cc3)n2)cc(OC)c1OC.Cl [2u, (2-(4-((Dimethylamino)methyl)phenyl)thiazol-4-yl)(3,4,5-trimethoxyphenyl)methanone hydrochloride] | > 10000 | > 10000 | > 10000 | > 10000 | 1020 ± 200 | > 10000 | antiproliferative activity [1]: abrogated activity
6 | COc1cc(C(=O)c2csc(Nc3ccccc3)n2)cc(OC)c1OC.Cl [5Ha, (2-(Phenylamino)thiazol-4-yl)(3,4,5-trimethoxyphenyl)methanone hydrochloride salt] |  |  |  |  |  |  | CL (mL/min/kg), systemic clearance [2, 10]: 17 ± 3 mL/min/kg; Vss (L/kg), volume of distribution [2, 10]: 1.4 ± 0.2 L/kg; F (%), percent oral bioavailability ([2]; Table 4, 10 mg/kg): 11%
7 | O=C(c1ccc(F)cc1)c1cn(S(=O)(=O)c2ccccc2)c(-c2ccc(OCc3ccccc3)cc2)n1 [11jb, (2-(4-(benzyloxy)phenyl)-1-(phenylsulfonyl)-1H-imidazol-4-yl)(4-fluorophenyl)methanone] |  |  | 75 ± 0.5 |  | 35 ± 1 | 38 ± 0.2 | IC50 (B16-F1; Mus musculus; B16-F1 melanoma cells, 48 h, SRB; read-out: IC50 ± SEM (nM) B16-F1): 110 ± 15 nM; IC50 (A375; Homo sapiens, A-375; A375 melanoma cells, 48 h, SRB; read-out: IC50 ± SEM (nM) A375): 64 ± 7 nM; IC50 (WM-164; WM164 melanoma cells, 48 h, SRB, read-out: IC50 ± SEM (nM) WM164): 48 ± 5 nM; IC50 ([1]; Prostate cell, ABI compounds, Tables 11-13, read-out: IC50 (average over cell lines)): 61 nM; IC50 (DU 145; read-out: IC50 ± SEM (nM) Du 145): 58 ± 1 nM
8 | COc1cc(C(=O)c2c[nH]c(-c3ccccc3)n2)cc(OC)c1OC [12aa, (2-phenyl-1H-imidazol-4-yl)(3,4,5-trimethoxyphenyl)methanone] |  |  |  |  |  |  | IC50 (B16-F1; Mus musculus, B16-F1, 48 h, read-out: IC50 (nM), B16-F1): 120 nM; IC50 (A375; Homo sapiens, A-375, 48 h, read-out: IC50 (nM), A375): 160 nM; IC50 (WM-164; WM164, 48 h, read-out: IC50 (nM), WM164): 10 nM; IC50 (PC-3; read-out: IC50 (nM), PC-3): 288 nM; IC50 ([1]; ABI compounds, Tables 11-13, read-out: IC50 (average over cell lines)): 160 nM; IC50 (DU 145; read-out: IC50 (nM), Du 145): 196 nM; IC50 (LNCaP; read-out: IC50 (nM), LNCaP): 152 nM; IC50 (PPC-1; read-out: IC50 (nM), PPC-1): 133 nM
9 | Cc1ccc(-c2nc(C(=O)c3ccc(F)cc3)c[nH]2)cc1 [12db-HCl, (4-fluorophenyl)(2-(p-tolyl)-1H-imidazol-4-yl)methanone HCl salt] |  |  |  |  |  |  | IC50 (A375; Homo sapiens, A-375, 48 h, read-out: IC50 ± SEM (nM) A375, A375 melanoma cells, 48 h, SRB): 108 ± 11 nM; IC50 ([1]; ABI compounds, Tables 11-13, HCl salt, read-out: IC50 (average over cell lines)): 172 nM

From patent publication EP2608671B1, “COMPOUNDS FOR TREATMENT OF CANCER” (Gtx, Inc., priority 2010, dated 2012)
